Results: ChEMBL document CHEMBL4507276 (2021)

Assays:
[1] = molecular target: Mitogen-activated protein kinase kinase kinase 8 (Homo sapiens) (UniProt P41279); test: MAP3K8 Invitrogen selectivity data (BI); conditions: Compound concentration 3.0 uM
[2] = molecular target: Mast/stem cell growth factor receptor Kit (Homo sapiens) (UniProt P10721); test: KIT Invitrogen selectivity data (BI); conditions: Compound concentration 3.0 uM
[3] = molecular target: Serine/threonine-protein kinase PAK 3 (Homo sapiens) (UniProt O75914); test: PAK3 Invitrogen selectivity data (BI); conditions: Compound concentration 3.0 uM
[4] = molecular target: RAC-alpha serine/threonine-protein kinase (Homo sapiens) (UniProt P31749); test: AKT1 Invitrogen selectivity data (BI); conditions: Compound concentration 3.0 uM
Chain of RAC-alpha serine/threonine-protein kinase (Homo sapiens) (P31749 whole entry): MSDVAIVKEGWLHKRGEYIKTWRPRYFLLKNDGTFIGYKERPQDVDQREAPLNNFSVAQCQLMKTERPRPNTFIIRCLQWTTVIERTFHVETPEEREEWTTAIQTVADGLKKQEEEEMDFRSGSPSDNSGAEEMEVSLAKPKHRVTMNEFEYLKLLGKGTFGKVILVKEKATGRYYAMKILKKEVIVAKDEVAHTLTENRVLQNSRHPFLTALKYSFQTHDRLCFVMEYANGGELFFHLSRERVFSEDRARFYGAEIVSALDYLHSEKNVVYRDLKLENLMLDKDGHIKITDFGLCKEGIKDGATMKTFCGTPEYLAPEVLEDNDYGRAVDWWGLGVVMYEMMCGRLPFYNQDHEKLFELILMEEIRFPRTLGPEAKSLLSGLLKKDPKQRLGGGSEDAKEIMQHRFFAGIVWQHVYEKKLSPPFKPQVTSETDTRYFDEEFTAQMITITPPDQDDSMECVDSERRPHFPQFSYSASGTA

[5] = molecular target: Ribosomal protein S6 kinase alpha-6 (Homo sapiens) (UniProt Q9UK32); test: RPS6KA6 Invitrogen selectivity data (BI); conditions: Compound concentration 3.0 uM
Chain of Ribosomal protein S6 kinase alpha-6 (Homo sapiens) (Q9UK32 whole entry): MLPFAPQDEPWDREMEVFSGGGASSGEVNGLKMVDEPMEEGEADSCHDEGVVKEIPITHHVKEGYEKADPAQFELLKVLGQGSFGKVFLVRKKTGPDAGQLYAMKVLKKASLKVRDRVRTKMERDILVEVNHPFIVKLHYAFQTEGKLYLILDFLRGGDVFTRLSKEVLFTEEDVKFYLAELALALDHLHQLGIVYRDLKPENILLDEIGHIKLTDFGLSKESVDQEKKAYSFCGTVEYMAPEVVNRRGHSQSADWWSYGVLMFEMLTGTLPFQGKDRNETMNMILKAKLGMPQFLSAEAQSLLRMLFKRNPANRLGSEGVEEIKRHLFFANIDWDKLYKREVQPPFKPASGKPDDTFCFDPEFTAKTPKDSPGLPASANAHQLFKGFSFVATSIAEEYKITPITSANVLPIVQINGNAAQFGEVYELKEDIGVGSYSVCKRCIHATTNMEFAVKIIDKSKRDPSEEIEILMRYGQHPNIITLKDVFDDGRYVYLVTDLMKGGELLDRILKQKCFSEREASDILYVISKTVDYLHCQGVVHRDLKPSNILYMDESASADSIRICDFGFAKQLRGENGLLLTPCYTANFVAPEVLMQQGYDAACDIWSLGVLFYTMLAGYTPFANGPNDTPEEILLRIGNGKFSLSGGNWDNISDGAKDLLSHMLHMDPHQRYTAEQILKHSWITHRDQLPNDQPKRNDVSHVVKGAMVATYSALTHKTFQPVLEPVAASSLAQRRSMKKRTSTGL

[6] = molecular target: D(2) dopamine receptor (Homo sapiens) (UniProt P14416); test: D2S/HU Eurofins-Panlabs selectivity data (BI); conditions: Compound concentration 10.0 uM
[7] = molecular target: Phosphatidylinositol 4-kinase beta (Homo sapiens) (UniProt Q9UBF8); test: PI4KB Invitrogen selectivity data (BI); conditions: Compound concentration 3.0 uM
[8] = molecular target: Catechol O-methyltransferase (Sus scrofa) (UniProt Q99028); test: CATOMETHTRAN Cerep selectivity data (BI); conditions: Compound concentration 20.0 uM
Chain of Catechol O-methyltransferase (Sus scrofa) (Q99028 whole entry): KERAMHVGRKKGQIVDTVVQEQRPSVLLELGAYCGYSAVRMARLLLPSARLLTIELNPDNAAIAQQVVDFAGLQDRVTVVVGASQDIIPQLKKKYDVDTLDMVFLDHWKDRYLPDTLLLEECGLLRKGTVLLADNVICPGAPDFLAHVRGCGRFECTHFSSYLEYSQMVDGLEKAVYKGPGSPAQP

[9] = molecular target: Serine/threonine-protein kinase PAK 2 (Homo sapiens) (UniProt Q13177); test: PAK2 Invitrogen selectivity data (BI); conditions: Compound concentration 3.0 uM
[10] = molecular target: Casein kinase I isoform gamma-3 (Homo sapiens) (UniProt Q9Y6M4); test: CSNK1G3 Invitrogen selectivity data (BI); conditions: Compound concentration 3.0 uM
[11] = molecular target: Tyrosine-protein kinase Lck (Homo sapiens) (UniProt P06239); test: LCK Invitrogen selectivity data (BI); conditions: Compound concentration 3.0 uM
[12] = molecular target: T1, 5-hydroxytryptamine receptor 3A (Homo sapiens) (UniProt P46098); test: 5HT3/HU Eurofins-Panlabs selectivity data (BI); conditions: Compound concentration 10.0 uM
T1 sequence (whole entry): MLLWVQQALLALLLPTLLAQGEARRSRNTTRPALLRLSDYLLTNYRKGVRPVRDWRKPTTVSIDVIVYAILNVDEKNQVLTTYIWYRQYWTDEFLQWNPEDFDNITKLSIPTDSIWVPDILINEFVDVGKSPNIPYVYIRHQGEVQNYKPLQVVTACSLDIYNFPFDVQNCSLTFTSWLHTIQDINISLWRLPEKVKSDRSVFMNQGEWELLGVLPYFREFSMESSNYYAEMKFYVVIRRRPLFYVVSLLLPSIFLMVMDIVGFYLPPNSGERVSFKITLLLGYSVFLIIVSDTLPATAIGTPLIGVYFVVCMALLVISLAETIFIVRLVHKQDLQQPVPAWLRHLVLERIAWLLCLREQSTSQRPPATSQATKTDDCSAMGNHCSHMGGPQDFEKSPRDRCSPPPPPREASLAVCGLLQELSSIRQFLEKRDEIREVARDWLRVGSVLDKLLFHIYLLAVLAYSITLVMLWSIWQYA

[13] = molecular target: Chloride channel protein 1 (Rattus norvegicus) (UniProt P35524); test: CL-CHANNEL/R Cerep selectivity data (BI); conditions: Compound concentration 20.0 uM
[14] = molecular target: Adenosine receptor A3 (Homo sapiens) (UniProt P0DMS8); test: A3/H Eurofins-Panlabs selectivity data (BI); conditions: Compound concentration 10.0 uM
[15] = molecular target: Casein kinase I isoform gamma-1 (Homo sapiens) (UniProt Q9HCP0); test: CSNK1G1 Invitrogen selectivity data (BI); conditions: Compound concentration 3.0 uM
[16] = molecular target: Mu-type opioid receptor (Homo sapiens) (UniProt P35372); test: MU/HU Eurofins-Panlabs selectivity data (BI); conditions: Compound concentration 10.0 uM
[17] = molecular target: Casein kinase II subunit alpha' (Homo sapiens) (UniProt P19784); test: CSNK2A2 Invitrogen selectivity data (BI); conditions: Compound concentration 3.0 uM
Chain of Casein kinase II subunit alpha' (Homo sapiens) (P19784 whole entry, looked up): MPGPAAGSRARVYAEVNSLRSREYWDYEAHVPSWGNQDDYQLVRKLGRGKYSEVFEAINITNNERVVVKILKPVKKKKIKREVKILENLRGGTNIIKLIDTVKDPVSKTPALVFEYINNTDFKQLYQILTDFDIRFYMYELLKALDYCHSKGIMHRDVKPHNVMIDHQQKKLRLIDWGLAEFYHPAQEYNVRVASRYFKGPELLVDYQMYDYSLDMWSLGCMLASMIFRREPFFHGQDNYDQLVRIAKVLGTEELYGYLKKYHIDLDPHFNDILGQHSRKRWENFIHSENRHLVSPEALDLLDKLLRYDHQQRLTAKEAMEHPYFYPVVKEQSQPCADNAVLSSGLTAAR

[18] = molecular target: Gastrin/cholecystokinin type B receptor (Homo sapiens) (UniProt P32239); test: CCKB/H Cerep selectivity data (BI); conditions: Compound concentration 20.0 uM
[19] = molecular target: Histamine H4 receptor (Homo sapiens) (UniProt Q9H3N8); test: H4/H AG Cerep selectivity data (BI); conditions: filed as agonist, Compound concentration 20.0 uM
Chain of Histamine H4 receptor (Homo sapiens) (Q9H3N8 whole entry): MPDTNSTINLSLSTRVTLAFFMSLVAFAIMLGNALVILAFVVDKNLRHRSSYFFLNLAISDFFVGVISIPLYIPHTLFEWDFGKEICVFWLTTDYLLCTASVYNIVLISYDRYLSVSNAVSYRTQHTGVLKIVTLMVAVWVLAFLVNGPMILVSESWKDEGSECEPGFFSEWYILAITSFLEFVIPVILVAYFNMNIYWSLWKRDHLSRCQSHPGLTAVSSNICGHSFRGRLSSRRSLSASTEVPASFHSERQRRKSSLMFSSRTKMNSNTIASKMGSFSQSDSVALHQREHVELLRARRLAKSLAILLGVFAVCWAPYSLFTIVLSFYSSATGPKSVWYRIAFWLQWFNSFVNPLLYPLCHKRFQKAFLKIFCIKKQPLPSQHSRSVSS

[20] = molecular target: Protein-tyrosine kinase 2-beta (Homo sapiens) (UniProt Q14289); test: PTK2B Invitrogen selectivity data (BI); conditions: Compound concentration 3.0 uM
Homo sapiens = species: Homo sapiens; test: HIV-1/H Cerep selectivity data (BI); conditions: Compound concentration 20.0 uM
[21] = molecular target: 3',5'-cyclic-AMP phosphodiesterase 4D (Homo sapiens) (UniProt Q08499); test: PDE4D2 Cerep selectivity data (BI); conditions: Compound concentration 20.0 uM
[22] = molecular target: Mitogen-activated protein kinase kinase kinase 11 (Homo sapiens) (UniProt Q16584); test: MAP3K11 Invitrogen selectivity data (BI); conditions: Compound concentration 3.0 uM
[23] = molecular target: Glutamate receptor ionotropic, kainate 1 (Rattus norvegicus) (UniProt P22756); test: KAINATE/RA Cerep selectivity data (BI); conditions: Compound concentration 20.0 uM
[24] = molecular target: L-type Ca2+ channel (diltiazem site), Cav1.2 alpha-1C (Rattus norvegicus, UniProt P22002); test: CA+/DILSI/R Cerep selectivity data (BI); set-up: mode of action inhibitor; conditions: rat brain, probe [3H]diltiazem, compound concentration 20 uM, read-out: % Ctrl
[25] = molecular target: Alpha-1B adrenergic receptor (Rattus norvegicus) (UniProt P15823); test: ALPHA1B/R Eurofins-Panlabs selectivity data (BI); conditions: Compound concentration 10.0 uM
Chain of Alpha-1B adrenergic receptor (Rattus norvegicus) (P15823 whole entry, looked up): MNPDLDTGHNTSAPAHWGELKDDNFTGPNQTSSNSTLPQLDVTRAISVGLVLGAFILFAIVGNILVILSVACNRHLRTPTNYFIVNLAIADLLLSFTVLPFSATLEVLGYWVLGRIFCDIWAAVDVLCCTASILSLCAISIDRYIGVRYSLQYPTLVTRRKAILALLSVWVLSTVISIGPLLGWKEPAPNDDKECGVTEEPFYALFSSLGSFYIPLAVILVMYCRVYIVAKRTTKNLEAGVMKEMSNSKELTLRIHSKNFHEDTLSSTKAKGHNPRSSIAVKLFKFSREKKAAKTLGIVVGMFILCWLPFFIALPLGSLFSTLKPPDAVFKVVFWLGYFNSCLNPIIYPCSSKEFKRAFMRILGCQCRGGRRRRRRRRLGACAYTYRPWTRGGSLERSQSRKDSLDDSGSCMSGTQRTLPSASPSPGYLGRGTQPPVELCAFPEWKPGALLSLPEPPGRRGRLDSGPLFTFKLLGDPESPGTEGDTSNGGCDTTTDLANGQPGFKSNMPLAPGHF

[26] = molecular target: Sphingosine kinase 2 (Homo sapiens) (UniProt Q9NRA0); test: SPHK2 Invitrogen selectivity data (BI); conditions: Compound concentration 3.0 uM
Chain of Sphingosine kinase 2 (Homo sapiens) (Q9NRA0 whole entry): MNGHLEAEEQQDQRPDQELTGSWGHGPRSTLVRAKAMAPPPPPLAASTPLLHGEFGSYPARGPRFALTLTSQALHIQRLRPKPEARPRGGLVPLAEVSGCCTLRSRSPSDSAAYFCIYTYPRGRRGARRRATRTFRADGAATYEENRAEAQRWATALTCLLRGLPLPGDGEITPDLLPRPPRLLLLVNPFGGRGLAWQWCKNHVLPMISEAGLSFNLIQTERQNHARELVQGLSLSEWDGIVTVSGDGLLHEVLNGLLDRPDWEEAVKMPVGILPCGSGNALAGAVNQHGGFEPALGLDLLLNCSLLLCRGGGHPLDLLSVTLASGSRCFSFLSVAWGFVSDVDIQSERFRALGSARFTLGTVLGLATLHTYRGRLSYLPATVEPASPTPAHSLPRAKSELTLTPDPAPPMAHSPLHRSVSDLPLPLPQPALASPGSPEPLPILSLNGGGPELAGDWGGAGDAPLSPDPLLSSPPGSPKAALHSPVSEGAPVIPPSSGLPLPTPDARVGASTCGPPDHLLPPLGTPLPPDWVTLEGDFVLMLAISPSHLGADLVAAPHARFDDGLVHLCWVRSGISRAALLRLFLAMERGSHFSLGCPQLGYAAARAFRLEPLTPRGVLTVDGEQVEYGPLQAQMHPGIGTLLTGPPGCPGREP

[27] = molecular target: xanthine dehydrogenase/oxidase (Bos taurus, UniProt P80457); test: SUPOXXANOXID Cerep selectivity data (BI); set-up: mode of action inhibitor; conditions: cattle, xanthine oxidase enzyme assay; compound concentration 20 uM; read-out: % Ctrl
[28] = molecular target: T2, G protein-coupled receptor kinase 3 (Homo sapiens) (UniProt P35626); test: ADRBK2 Invitrogen selectivity data (BI); conditions: Compound concentration 3.0 uM
T2 sequence (whole entry): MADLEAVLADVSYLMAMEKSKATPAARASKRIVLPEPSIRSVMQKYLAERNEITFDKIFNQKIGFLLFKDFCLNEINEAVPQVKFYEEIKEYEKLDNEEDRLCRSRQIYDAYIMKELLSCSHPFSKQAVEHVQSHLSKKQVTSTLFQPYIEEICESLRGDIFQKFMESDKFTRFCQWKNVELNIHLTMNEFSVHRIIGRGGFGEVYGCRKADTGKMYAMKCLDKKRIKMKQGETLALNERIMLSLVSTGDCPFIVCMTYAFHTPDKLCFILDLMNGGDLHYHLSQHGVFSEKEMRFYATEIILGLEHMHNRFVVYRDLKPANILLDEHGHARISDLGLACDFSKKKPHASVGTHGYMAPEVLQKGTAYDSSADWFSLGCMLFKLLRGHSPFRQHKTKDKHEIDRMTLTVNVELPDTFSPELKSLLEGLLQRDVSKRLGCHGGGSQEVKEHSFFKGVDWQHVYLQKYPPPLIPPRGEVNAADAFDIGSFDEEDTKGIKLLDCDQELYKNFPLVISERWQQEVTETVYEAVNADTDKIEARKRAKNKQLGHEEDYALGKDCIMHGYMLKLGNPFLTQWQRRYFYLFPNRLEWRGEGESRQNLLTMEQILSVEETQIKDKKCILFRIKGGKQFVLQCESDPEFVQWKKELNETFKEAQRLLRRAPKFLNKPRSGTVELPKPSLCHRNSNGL

[29] = molecular target: 5-hydroxytryptamine receptor 1D (Homo sapiens) (UniProt P28221); test: 5HT1D/H AG Cerep selectivity data (BI); conditions: filed as agonist, Compound concentration 20.0 uM

Chain of Mast/stem cell growth factor receptor Kit (Homo sapiens) (P10721 whole entry): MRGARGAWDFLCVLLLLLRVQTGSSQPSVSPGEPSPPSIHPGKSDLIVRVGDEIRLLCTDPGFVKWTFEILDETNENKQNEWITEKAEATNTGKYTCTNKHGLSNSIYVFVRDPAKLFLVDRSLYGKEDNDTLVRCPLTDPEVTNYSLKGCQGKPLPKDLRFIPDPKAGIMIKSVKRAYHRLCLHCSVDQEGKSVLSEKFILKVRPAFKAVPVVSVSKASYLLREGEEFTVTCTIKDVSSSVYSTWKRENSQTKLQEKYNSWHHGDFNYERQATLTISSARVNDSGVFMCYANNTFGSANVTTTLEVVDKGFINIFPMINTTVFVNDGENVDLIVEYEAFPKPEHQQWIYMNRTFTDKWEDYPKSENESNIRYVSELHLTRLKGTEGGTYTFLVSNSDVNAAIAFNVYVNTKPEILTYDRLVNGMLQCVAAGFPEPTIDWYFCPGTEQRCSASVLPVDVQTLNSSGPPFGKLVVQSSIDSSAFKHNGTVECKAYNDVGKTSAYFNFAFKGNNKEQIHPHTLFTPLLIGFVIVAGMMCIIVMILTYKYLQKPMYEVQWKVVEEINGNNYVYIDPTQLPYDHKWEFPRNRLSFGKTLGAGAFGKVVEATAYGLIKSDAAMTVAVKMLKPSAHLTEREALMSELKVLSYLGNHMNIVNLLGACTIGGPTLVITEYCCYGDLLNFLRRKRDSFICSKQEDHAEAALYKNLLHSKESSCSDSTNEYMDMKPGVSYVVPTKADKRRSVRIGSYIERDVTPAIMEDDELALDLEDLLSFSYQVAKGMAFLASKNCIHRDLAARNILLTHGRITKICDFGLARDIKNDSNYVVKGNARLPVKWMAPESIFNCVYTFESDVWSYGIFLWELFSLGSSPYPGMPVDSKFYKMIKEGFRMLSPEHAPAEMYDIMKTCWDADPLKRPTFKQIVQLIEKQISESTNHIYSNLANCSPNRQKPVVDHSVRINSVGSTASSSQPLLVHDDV
Chain of Mitogen-activated protein kinase kinase kinase 8 (Homo sapiens) (P41279 whole entry): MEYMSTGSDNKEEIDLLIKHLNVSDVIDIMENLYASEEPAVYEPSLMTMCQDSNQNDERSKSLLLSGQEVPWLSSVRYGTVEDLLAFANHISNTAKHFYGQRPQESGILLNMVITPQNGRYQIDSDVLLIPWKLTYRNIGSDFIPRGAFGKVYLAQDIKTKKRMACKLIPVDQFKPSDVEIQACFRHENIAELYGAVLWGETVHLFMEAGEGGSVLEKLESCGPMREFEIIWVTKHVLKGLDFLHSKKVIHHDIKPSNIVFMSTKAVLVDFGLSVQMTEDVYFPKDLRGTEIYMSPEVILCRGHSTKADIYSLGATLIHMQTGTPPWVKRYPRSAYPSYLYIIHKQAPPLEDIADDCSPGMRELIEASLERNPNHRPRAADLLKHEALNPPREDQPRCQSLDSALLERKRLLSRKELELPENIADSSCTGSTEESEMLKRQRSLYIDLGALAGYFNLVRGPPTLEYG

CN(C)C(=O)Cn1cc(-c2nc([C@@](C)(c3ccc(-c4cnc(N)nc4)cc3)C3CC3)no2)cn1 [BI 665915]
inactive: residual activity [1] 93.5% | residual activity [2] 85% | residual activity [3] 94.5% | residual activity [4] 99% | residual activity [5] 105% | residual activity [6] 94% | residual activity [7] 95% | residual activity [8] 99% | residual activity [9] 100% | residual activity [10] 99% | residual activity [11] 91.5% | residual activity [12] 102% | residual activity [13] 88% | residual activity [14] 88% | residual activity [15] 97.5% | residual activity [16] 112% | residual activity [17] 94.5% | residual activity [18] 119% | residual activity [19] 109% | residual activity [20] 86% | residual activity (Homo sapiens) 100% | residual activity [21] 82% | residual activity [22] 96% | residual activity [23] 82% | residual activity [25] 96% | residual activity [26] 97% | residual activity [28] 100% | residual activity [29] 102%
119% (not active): activity at 20 µM [24]
85% (not active): activity at 20 µM [27]
